Where a name gives a salt, the structure may show the parent alone.

This is an account of results in patent US20030157162A1, “Liposome-encapsulated opioid analgesics” (priority 2002, published 2003).

The subject of data set [1] is dogs. As to the kind of experiment: Sedation score, heart rate, respiratory rate, temperature and skin reaction in dogs. Format: in vivo, dog. On the procedure: (§1) Two doses of liposome-encapsulated oxymorphone and two equipotent doses of standard pharmaceutical oxymorphone were investigated. One dose of the liposomal vehicle was also investigated to confirm the absence of pharmacodynamic properties of the vehicle. Each dog received only 1 treatment and was then removed from further study. Treatment groups were as follows: Group 1 (n=6) liposome-encapsulated oxymorphone (1.0 mg/kg); Group 2 (n=5) liposome-encapsulated oxymorphone (0.5 mg/kg); Group 3 (n=6) standard pharmaceutical oxymorphone (NUMORPHAN®, Endo Pharmaceuticals Inc., Chadds Ford, Pa.) (0.1 mg/kg); Group 4 (n=6) standard pharmaceutical oxymorphone (0.05 mg/kg); Group 5 (n=2) liposomal vehicle (0.7 ml). Liposome-encapsulated oxymorphone or vehicle were drawn from a stock solution on ice via an 18 gauge needle attached to a 1- or 3-ml syringe and administered subcutaneously slowly via a 23 gauge needle. All injections were made in a shaved area of the thigh such that potential skin reactions to the liposomal preparations could be assessed.
A sedation score was recorded on each dog prior to drug administration and at the same times as venous blood collection. The sedation score included recording of heart rate by auscultation, respiratory rate by observation of movement of the thoracic wall, and rectal temperature via a digital rectal thermometer. The same person assessed sedation scores throughout the study. Changes in sedation score, heart rate, respiratory rate, and temperature were analyzed using repeated measures ANOVA, with p<0.05 considered significant.

Data set [2] in a line: In vivo pharmacokinetics in dogs (ELISA, NONMEM model, trapezoidal AUC). Further details: species or system dog.
Description: Twenty-five adult beagles (n=14; 12 female, 2 male) and hounds (n=11; 9 female, 2 male) that were 1 to 5 years old (median age 1.5 years) and weighed between 6.9 kg and 35.7 kg (median weight=9.46 kg) were used. Normal health status and organ function were confirmed by physical exam and a complete blood count and serum chemistry profile prior to inclusion in the study. None of the animals received any medications in the 2 weeks prior to study. Animals were housed individually (hounds) or in groups of 2 to 4 (beagles), and were fed a commercial diet and water ad libitum throughout the study.
as §1
A 1 ml blood sample was collected percutaneously from the left and right cephalic or saphenous veins, in rotating order. In groups 1 and 2 (liposome-encapsulated oxymorphone groups), blood was collected before and 0.5, 1, 2, 4, 8, 12, 16, and 24 hours after drug administration, and daily for 5 days at the same time of day as treatment administration had occurred. In groups 3, 4, and 5 (standard oxymorphone and liposomal vehicle groups), blood was collected before and 0.5, 1, 2, 4, 8, 12, and 24 hours after drug administration. Blood samples were transferred to centrifuge tubes and held on ice for a maximum of 4 hours, then centrifuged at 5° C. for 10 minutes at 5000×g. Serum was stored at −70° C. until analysis.
Oxymorphone concentrations in serum were quantitated using a commercial ELISA (Neogen Inc, Lexington, Ky.).
Plasma oxymorphone concentrations were used in pharmacokinetic model building using a non-linear, mixed effect computer program (NONMEM User's Guides, (1989-98) Beal and Sheiner (Eds.) GloboMax, LLC, Hanover, Md.). The data from all animals were evaluated concurrently. The assumption was made that the subcutaneous injection of the standard and liposomal oxymorphone delivered drug to an extravascular compartment from which unidirectional absorption into the blood occurred. In the case of the liposomal preparation, an additional, unidirectional rate constant of flux from the liposome to the surrounding subcutaneous compartment was assumed.
This was tested in the pharmacokinetic model construction with allowance for a variable (fitted) fraction of the liposomal dose administered directly to the subcutaneous space in the aqueous carrier.
The NONMEM model included an intersubject variability for the parameters of distribution volume, fraction of drug delivered to of the liposome, and drug flux into and out of the plasma. The first-order rate of drug loss from the liposome was assumed to be a physiochemical constant, and was not allowed to vary between animals. Animal weight and sex were tested as continuous and categorical covariates affecting volume and clearance. Pharmacokinetic models that included a tissue distribution compartment were over-parameterized and were discarded. […]

Take `CN1CC[C@]23c4c5ccc(O)c4O[C@H]2C(=O)CC[C@@]3(O)[C@H]1C5` [standard oxymorphone, oxymorphone hydrochloride]: in data set [1] (0.05 and 0.1 mg/kg), the “time of peak sedation score” value was found to be 30 min. For the same molecule, the “respiratory rate and rectal temperature compared to baseline” value in data set [1] (either dose) is “moderate and statistically insignificant decrease”. The “local skin reactions at the site of injection” value in data set [1] (s.c.) is “no local skin reactions”. In data set [1] (within clinically normal range), the “heart rate from baseline to 2 hours after drug administration” value is given as “significant decrease”. In data set [2] (0.05 mg/kg), the “AUC (dose-normalised, median)” value was 128.0 (ng-hr/L)/mg/kg); the “K23 (from subcutaneous tissue to systemic tissue)” value was found to be 0.400 h⁻¹; the “K30 (from systemic tissue to excretion from body)” value was found to be 5.40 h⁻¹; the V was determined as 2.03 L. Besides, in data set [2] (0.1 mg/kg), the “AUC (dose-normalised, median)” value is on record as 135.9 (ng-hr/L)/mg/kg); the “K23 (from subcutaneous tissue to systemic tissue)” value was 0.348 h⁻¹; the “K30 (from systemic tissue to excretion from body)” value amounted to 7.19 h⁻¹; the V turned out to be 1.50 L.
